This experiment deals with midbrain dopaminergic neurons. Put plainly: Dopamine (DA) uptake assay in primary midbrain cultures. The class given is cell-based, rat. The note with it: for activity at 0.6 µM: compound concentration 0.6 μM; for activity at 5 µM: compound concentration 5 μM; for activity at 20 µM: compound concentration 20 μM; for activity at 10 µM: compound concentration 10 μM; for activity at 0.7 µM: compound concentration 0.7 μM. On the procedure:
Primary midbrain cultures were prepared from rat embryo ventral mesencephalon as described previously by Lin et al (1994). In brief, rostral mesencephalic tegmentum of embryonic day 16 rat embryos was collected in DMEM/F12 (Hyclone SH30023.01) containing 2 mM glutamine on ice, The tissue was treated with 0.1% trypsin in Hanks' balanced salt solution (HBSS, Gibco 14175-095) for 15 min at 37° C. and dissociated mechanically by mild trituration with a fire-polished glass pipet in growth medium plus 2% heat-inactivated fetal bovine serum (FBS). The growth medium consisted of equal volumes of Dulbecco's minimal essential medium DMEM (Gibco 12100-046) and HAM's F12 nutrient mixture (Gibco 21700-075) supplemented with 33 mM glucose, 13 mM sodium bicarbonate, 5 mM HEPES, 2 mM glutamine, 25 μg/ml insulin, 100 μg/ml transferrin, 60 μM putrescine, 20 nM progesterone, 30 nM sodium selenite, 5 U/ml penicillin G and 5 μg/ml streptomycin. 24-well tissue culture plate was coated by adding 15 μg/ml poly-1-ornithine hydrobromide solution at 0.5 ml/well, incubated at room temperature for 1 hr. The coating solution was removed and the well washed 3 times with distilled water and one wash with HBSS. The dissociated cells were plated onto polyornithine-coated wells at 250,000-350,000 trypan blue-excluding viable cells per well in 500 μl of above medium containing 1% FBS. After 3 h when most of the cells had adhered to the bottom of the well, the medium was replaced with 500 μl of fresh medium without FBS. A serial dilution of the sample to be assayed for trophic activity was added to each well in duplicate at the time of medium change or within 24 h thereafter. Unless otherwise stated, cultures were incubated at 37° C. without any further medium change up to 7 days. Primary hindbrain cultures were prepared as described for the midbrain cultures except that the rostral raphe region (instead of the rostral mesencephalon) was dissected and trypsinized for 20 (instead of 15) min.
[^3H]DA uptake was measured in cultures at day 7, and all the solutions were maintained at 37° C. The growth medium was removed, and the cultures were rinsed twice with 0.25 ml of uptake buffer, which consists of HBSS (Gibco 11201-092) supplemented with 28 mM glucose, 15 mM HEPES, 1 mM ascorbic acid (an antioxidant), and […] pargyline (a monoamine oxidase inhibitor). The cultures were then incubated with 0.25 ml of fresh uptake buffer containing 50 nM [^3H]DA (NEN/DuPont) for 20 min at 37° C. [^3H]DA uptake was stopped by removing the incubation mixture, and cells were then washed twice with 0.5 ml of the uptake buffer at room temperature. To release [^3H]DA from the cells, the cultures were lysed with 0.2 ml of 0.1 N NaOH for 1 h at room temperature, the lysate was then added to 1 ml of Microscint-20 (Packard 6013621), and counted for radioactivity in a microplate scintillation counter (Packard TopCount, NXT). Background values were obtained by adding to the uptake buffer 0.5 mM GBR-12909, a specific inhibitor of the high-affinity uptake pump of the dopaminergic neurons, and were usually <5% of the ^3H uptake in untreated control cultures. Forskolin (Fk, 25 μM) was employed as a positive control.

Where [1] appears, read: Rattus norvegicus, Neuron, compound concentration 1.25 μM, midbrain culture, read-out: DA uptake % of control.
Setting [2] is: Rattus norvegicus, Neuron, midbrain culture, read-out: DA uptake % of control.
The mark [3] stands for this setting: Rattus norvegicus, Neuron, compound concentration 2.5 μM, midbrain culture, read-out: DA uptake % of control.

Molecules are shown by their SMILES. pEC50: −log10 of the molar value.

Regarding `O=C(/C=C/c1ccc(Cl)cc1)Nc1ccc(S(=O)(=O)Nc2ncccn2)cc1` [A′], under setting [1], the activity at 1.25 µM stood at 140%. Regarding `O=C(/C=C/c1ccc(C(F)(F)F)cc1)Nc1ccc(S(=O)(=O)Nc2nccs2)cc1` [A′′′], the activity at 0.6 µM under setting [2] came out at 195%. With `O=C(/C=C/c1ccccc1F)Nc1ccc(S(=O)(=O)Nc2nccs2)cc1` [A′′′′], the activity at 2.5 µM under setting [3] was determined as 170%. As for `O=C(/C=C/c1c(Cl)cccc1Cl)Nc1ccc(S(=O)(=O)Nc2ccccn2)cc1` [A″], the activity at 1.25 µM under setting [1] is 340%.

Consider `O=C(/C=C/c1ccccc1)Nc1ccc(S(=O)(=O)Nc2nccs2)cc1` [B], for which, under setting [3], the activity at 2.5 µM came to 170%. Consider `CCc1nnc(NS(=O)(=O)c2ccc(NC(=O)c3ccc(Cl)cc3Cl)cc2)s1` [B′], for which the activity at 5 µM under setting [2] was 150%. With `COc1cc(Br)c(/C=C/C(=O)Nc2ccc(S(=O)(=O)Nc3nccs3)cc2)cc1OC` [B′′′], the activity at 1.25 µM under setting [1] came to 260%. `Cc1cccc(/C=C/C(=O)Nc2ccc(S(=O)(=O)Nc3ccccn3)cc2)c1` [B′′′′]: under setting [2], the activity at 5 µM worked out at 240%. Consider `O=C(/C=C/c1cccc(Cl)c1)Nc1ccc(S(=O)(=O)Nc2nc[nH]n2)cc1` [B′′′′′], for which the activity at 1.25 µM under setting [1] was 230%. With `Cc1cc(NS(=O)(=O)c2ccc(NC(=O)/C=C/c3ccccc3Cl)cc2)no1` [B″], the activity at 5 µM under setting [2] was 180%. With `O=C(COc1ccc(Cl)cc1)Nc1ccc(S(=O)(=O)Nc2nccs2)cc1` [Compound D], under setting [2], the activity at 20 µM turned out to be 210%. With `CCc1nnc(NS(=O)(=O)c2ccc(NC(=O)c3ccccc3F)cc2)s1` [Compound Z], the activity at 10 µM under setting [2] amounted to 150%. In the case of `Cc1ccc(/C=C/C(=O)Nc2ccc(S(=O)(=O)Nc3cccs3)cc2)c(C)c1` [Compound Z′], the “stimulation maximum of DA uptake compared to compound A” value (FIG. 36) was “higher stimulation maximum”. Moreover, under setting [1], the activity at 1.25 µM is 365%. For the same compound, the pEC50 (Rattus norvegicus, Neuron, midbrain culture, FIG. 36, read-out: half-maximal effective concentration (EC50) for DA uptake stimulation) was roughly 6.70. Consider `O=C(/C=C/c1ccccc1Cl)Nc1ccc(S(=O)(=O)Nc2ncccn2)cc1` [C′], for which, under setting [3], the activity at 2.5 µM turned out to be 140%. As for `O=C(/C=C/c1cccc(C(F)(F)F)c1Cl)Nc1ccc(S(=O)(=O)Nc2nccs2)cc1` [C′′′], the activity at 0.6 µM under setting [2] was 180%. For the compound `Cc1ccc(/C=C/C(=O)Nc2ccc(S(=O)(=O)Nc3ccccn3)cc2)cc1` [C′′′′], under setting [3], the activity at 2.5 µM is 160%. As to `O=C(/C=C/c1c(Cl)cccc1Cl)Nc1ccc(S(=O)(=O)Nc2nccs2)cc1` [C′′′′′], the “DA uptake % of control” value (compound concentration 1.25 μM, midbrain culture, 1.25 µM) was 310% of control.

Consider `O=C(Nc1ccc(S(=O)(=O)Nc2cccs2)cc1)c1ccc2ccccc2c1` [C″], for which the activity at 2.5 µM under setting [3] was determined as 200%.

With `O=C(Nc1ccc(S(=O)(=O)Nc2nccs2)cc1)c1sc2ccccc2c1Cl` [D′], under setting [2], the activity at 0.6 µM is 170%. With `Cc1cc(C)cc(/C=C/C(=O)Nc2ccc(S(=O)(=O)Nc3nccs3)cc2)c1` [D′′′], under setting [1], the activity at 1.25 µM was determined as 240%.

As for `Cn1c(C(=O)Nc2ccc(S(=O)(=O)Nc3nccs3)cc2)cc2ccccc21` [D′′′′], under setting [3], the activity at 2.5 µM was determined as 190%.

On to `Cc1ccccc1/C=C/C(=O)Nc1ccc(S(=O)(=O)Nc2nc[nH]n2)cc1` [D′′′′′], for which the activity at 2.5 µM under setting [3] was found to be 260%. Consider `O=C(/C=C/c1ccccc1Br)Nc1ccc(S(=O)(=O)Nc2nc[nH]n2)cc1` [D″], for which the activity at 1.25 µM under setting [1] was 310%. For `Cc1ccc(/C=C/C(=O)Nc2ccc(S(=O)(=O)Nc3nccs3)cc2)cc1` [E], under setting [3], the activity at 2.5 µM turned out to be 260%. On to `O=C(/C=C/c1cccc([N+](=O)[O-])c1)Nc1ccc(S(=O)(=O)Nc2nccs2)cc1` [E′], for which the activity at 1.2 µM (Rattus norvegicus, Neuron, compound concentration 1.2 μM, midbrain culture, read-out: DA uptake % of control) turned out to be 210%. For `CN(C)c1ccc(C(=O)Nc2ccc(S(=O)(=O)Nc3nccs3)cc2)cc1` [E′′′], under setting [3], the activity at 2.5 µM turned out to be 130%. On the same count and under the same terms, the same measure for `O=C(Nc1ccc(S(=O)(=O)Nc2nccs2)cc1)c1cc2ccccc2o1` [E′′′′]: 260%. `Cc1cccc(/C=C/C(=O)Nc2ccc(S(=O)(=O)Nc3nc[nH]n3)cc2)c1` [E″]: the activity at 1.25 µM under setting [1] is 290%. For the compound `O=C(Nc1ccc(S(=O)(=O)Nc2nccs2)cc1)c1ccc(F)c(F)c1` [F], the activity at 20 µM under setting [2] came to 180%. For `O=C(Nc1ccc(S(=O)(=O)Nc2nccs2)cc1)c1sc2cc(Cl)ccc2c1Cl` [F′], the activity at 0.3 µM (Rattus norvegicus, Neuron, compound concentration 0.3 μM, midbrain culture, read-out: DA uptake % of control) is 180%. As for `COc1cccc(C(=O)Nc2ccc(S(=O)(=O)Nc3nccs3)cc2)c1` [F′′′], under setting [2], the activity at 10 µM stood at 140%.

`O=C(Nc1ccc(S(=O)(=O)Nc2nccs2)cc1)c1cc2ccccc2oc1=O` [F′′′′]: the activity at 0.25 µM (Rattus norvegicus, Neuron, compound concentration 0.25 μM, midbrain culture, read-out: DA uptake % of control) was determined as 160%.

Consider `O=C(/C=C/c1ccccc1Cl)Nc1ccc(S(=O)(=O)Nc2ccccn2)cc1` [F″], for which the activity at 2.5 µM under setting [3] came to 180%. `O=C(/C=C/c1ccco1)Nc1ccc(S(=O)(=O)Nc2ccco2)cc1` [G]: the activity at 40 µM (Rattus norvegicus, Neuron, compound concentration 40 μM, midbrain culture, read-out: DA uptake % of control) was determined as 190%. For the compound `Cc1cc(NS(=O)(=O)c2ccc(NC(=O)/C=C/c3ccccc3)cc2)no1` [G′], the activity at 20 µM under setting [2] was 140%. The same measure, in the same setting: then `O=C(/C=C/c1ccccc1)Nc1ccc(S(=O)(=O)Nc2ccccn2)cc1` [G′′′], with 180%. On to `Cc1cccc(/C=C/C(=O)Nc2ccc(S(=O)(=O)Nc3nccs3)cc2)c1` [G′′′′], for which the activity at 2.5 µM under setting [3] worked out at 220%. Take `O=C(/C=C/c1ccccc1C(F)(F)F)Nc1ccc(S(=O)(=O)Nc2nc[nH]n2)cc1` [G″]: the activity at 1.25 µM under setting [1] amounted to 350%. Turning to `CC(C)(C)c1ccc(C(=O)Nc2ccc(S(=O)(=O)Nc3nccs3)cc2)cc1` [H], the activity at 2.5 µM under setting [3] was 150%.

As to `COc1ccc(C(=O)Nc2ccc([S+]([O-])Nc3nccs3)cc2)cc1` (centres unmarked) [H′], under setting [2], the activity at 10 µM amounted to 160%. As to `COc1ccc(/C=C/C(=O)Nc2ccc(S(=O)(=O)Nc3ccccn3)cc2)cc1` [H′′′], the activity at 20 µM under setting [2] came to 180%. Turning to `O=C(/C=C/c1cccc(C(F)(F)F)c1)Nc1ccc(S(=O)(=O)Nc2nccs2)cc1` [H′′′′], under setting [1], the activity at 1.25 µM was 240%.

Take `O=C(/C=C/c1c(Cl)cccc1Cl)Nc1ccc(S(=O)(=O)Nc2nc[nH]n2)cc1` [H″]: the activity at 1.25 µM under setting [1] is 260%. Regarding `Cc1cc(NS(=O)(=O)c2ccc(NC(=O)/C=C/c3c(Cl)cccc3Cl)cc2)no1` [I], the activity at 0.7 µM under setting [2] came to 150%. With `O=C(/C=C/c1ccccc1Cl)Nc1ccc(S(=O)(=O)N2CCOCC2)cc1` [I′], the activity at 2.5 µM under setting [3] came out at 150%.

For `COc1ccc(/C=C/C(=O)Nc2ccc(S(=O)(=O)Nc3nccs3)cc2)cc1` [I′′′], under setting [2], the activity at 5 µM worked out at 140%. Regarding `O=C(/C=C/c1cccc(F)c1)Nc1ccc(S(=O)(=O)Nc2nccs2)cc1` [I′′′′], the activity at 2.5 µM under setting [3] turned out to be 200%.

As for `COc1ccc(/C=C/C(=O)Nc2ccc(S(=O)(=O)Nc3nccs3)cc2)c(Cl)c1OC` [I″], under setting [1], the activity at 1.25 µM was 245%.

Take `COc1cc(OC)cc(C(=O)Nc2ccc(S(=O)(=O)Nc3nccs3)cc2)c1` [J]: the activity at 20 µM under setting [2] amounted to 150%. Turning to `Cc1noc(NS(=O)(=O)c2ccc(NC(=O)/C=C/c3ccc(Cl)cc3)cc2)c1C` [J′], under setting [2], the activity at 5 µM was found to be 180%. On to `COc1cccc(/C=C/C(=O)Nc2ccc(S(=O)(=O)Nc3nccs3)cc2)c1` [J′′′], for which the activity at 2.5 µM under setting [3] came to 140%.

Consider `O=C(/C=C/c1ccccc1Br)Nc1ccc(S(=O)(=O)Nc2nccs2)cc1` [J′′′′], for which, for the setting “compound concentration 2.5 μM, midbrain culture”, the DA uptake % of control is 210%. As to `Cc1ccc(C)c(/C=C/C(=O)Nc2ccc(S(=O)(=O)Nc3nccs3)cc2)c1` [J″], the activity at 1.25 µM under setting [1] was found to be 320%. `O=C(/C=C/c1cccc(Cl)c1)Nc1ccc(S(=O)(=O)Nc2cnc3ccccc3n2)cc1` [K]: under setting [2], the activity at 0.7 µM amounted to 190%.

Source of the values: patent publication US7671077B2, “Neuroprotective small organic molecules, compositions and uses related thereto” (priority 2004, dated 2010).
